Measurements: patent US20040266834A1, “Thiazolidinediones alone or in cabination with other therapeutic agents for cancer therapy” (priority 1999, published 2004)
Values after ≈ are worked out from the molar mass of the structure shown. Structures can show the parent of a compound that is named as a salt. Starred links: 1 amine or outer side, 2 acyl side, 3 side chain; linkers in the order of their positions; H or OH if unused. Positions of bridges follow the written chain, without caps; N, C: chain ends. Non-standard residues stand in square brackets, D forms with d. Residues, ends and D or L forms follow the SMILES beside them. Chains are numbered I, II in the order given. Actinocin(9to1) = Cc1c2oc3c(C)ccc(C(=O)[*:1])c3nc-2c(C(=O)[*:2])c(N)c1=O; NMeV = CN[C@H](C(=O)O)C(C)C; Sar = CNCC(=O)O

What was measured:
Saos-2 cells [1] = assay: DNA content (Hoechst H 33258) as measure of cell proliferation, Saos-2; assay type: cell-based, human
Protocol: Cells exposed to a single treatment of troglitazone, 5-fluorouracil, and/or cis-platinum for 3 days. […] The phrase “cell proliferation” is used herein interchangeably with “cell growth.” Concentration of cellular DNA was determined using Hoechst dye H 33258 and a Hoefer DyNA Quant fluorometer according to manufacturer's instructions. Results are expressed as μg DNA/well. All experiments were done in triplicate.

PA-1 cells = assay: DNA content, ovarian tumor cells PA-1; assay type: cell-based; conditions: Homo sapiens, 72 h, 3 days, read-out: inhibition of cell proliferation
Protocol: (§1) […]. At the end of 3 days DNA content was determined as a measure of cell proliferation.
(§2) Concentration of cellular DNA was determined using Hoechst dye H 33258 and a Hoefer DyNA Quant fluorometer according to manufacturer's instructions. Results are expressed as μg DNA/well. All experiments were done in triplicate.

PPARγ in UMCR 3 cells = assay: PPRE/luciferase reporter, UMCR 3; assay type: cell-based, human; conditions: 10 μM, 24-hour treatment
Protocol: A tandem PPRE luciferase expression plasmid was constructed using three copies of a consensus PPRE 5′ to the luciferase gene. Cells were transfected using the calcium phosphate method of transfection. 10 μg of PPRE/luciferase reporter plasmid was transfected into URMC 3, 6, and 7 cells. A CMV-CAT reporter plasmid was cotransfected (0.5 μg) with PPRE/luciferase as an internal control for transfection efficiency. CAT activity was measured by ELISA as described by Boehringer-Mannheim. […] Cells lysates were prepared and luciferase activity was determined using an AutoLumat luminometer.

Saos-2 cells [2] = assay: [3H]thymidine incorporation, Saos-2; assay type: cell-based, human
Protocol: Saos-2 cells (10,000/well) were seeded into wells of 12-well plates and grown for 4 days until near confluent. […]. [Methyl-^3H]thymidine (1 μCi) and thymidine (3 μM) were then added to each well, and the incubation was continued for another 4 h. Cells were rinsed with ice-cold PBS twice and were treated with ice-cold 10% TCA. The cells were then rinsed twice with PBS and solubilized in 400 μl of solution composed of 0.03% SDS in 0.3 N NaOH. The extracts were neutralized with HCl, and radioactivity incorporated into the cells was quantified by liquid scintillation spectrometry.

p21 mRNA = assay: Ribonuclease protection assay, cell cycle regulator mRNA; assay type: cell-based, human; conditions: single treatment 1 μM, 24 hr, normalized to GAPDH
Protocol: To determine whether troglitazone effected any of the cell cycle regulator genes, ribonuclease protection assay (RPA) was performed measuring mRNAs encoding p130, Rb, p107, p53, p57, p27, p21, p19, p18, p16, p14/15 and the housekeeping gene products L32 and GAPDH. […] Cells were lysed and total RNA was isolated. […] Ribonuclease protection assay was performed using kit according to manufacturer instructions (PharMingen, San Diego, Calif.). Conditions that were optimized included using 20 μg of total RNA from Hs578T cells and a 1:200 dilution of RNAse A/T (200 units/ml RNase A and 10,000 units/ml RNase T). […] Results are reported as the ratio of […] signal. All experiments were done in triplicate from different RNA preparations.

CaOV3 cells = assay: DNA content, ovarian tumor cells CaOV3; assay type: cell-based, human; conditions: 3 days; for inhibition at 10 µM: Homo sapiens, Caov-3, 72 h, read-out: inhibition of cell proliferation
Protocol: as §1, §2

Saos-2 cells [3] = assay: Lactate dehydrogenase (LDH) activity in media, Saos-2; assay type: cell-based, human
Protocol: Saos-2 cells were purchased from ATCC (Rockville, Md.) and cultured in 10% fetal bovine serum, penicillin/streptomycin, and DMEM media. Cells exposed to a single treatment of troglitazone, 5-fluorouracil, and/or cis-platinum for 3 days. At the end of 3 days media was tested for lactate dehydrogenase (LDH) activity as a measure of cell toxicity and DNA content was determined as a measure of cell proliferation. The phrase “cell proliferation” is used herein interchangeably with “cell growth.”
Media from treated cells was assayed for LDH activity with a colorimetric dye-oxidation method which has been previously described (11). Briefly, the assay mix including lactate, NAD, INT dye and diaphorase in PBS was added to media from the cells and incubated 30 minutes. Red color development is indicative of INT […] to formazan product, giving an indication of LDH activity when measured at 490 nm.

222 cells = assay: DNA content, ovarian tumor cells 222; assay type: cell-based; conditions: Homo sapiens, 72 h, 3 days, read-out: inhibition of growth
Protocol: as §1, §2

[4] = system: three renal cell carcinoma cell lines; assay: DNA content, three renal cell carcinoma cell lines taken together; assay type: cell-based, human; conditions: 10 μM; UMCR 3, 6 and 7
Protocol: Human renal tumor cells (URMC 3, 6, 7) were cultured in 5% fetal bovine serum, penicillin/streptomycin, and alpha-MEM media. […] At the end of 3 days DNA content was determined as a measure of cell proliferation.
as §2

[5] = cited from earlier work
multiple myeloma = conditions: oral administration; cited from earlier work
human ovarian 2774 cells = assay: DNA content, ovarian 2774 cells, combinatorial therapy; assay type: cell-based; conditions: taxol 1 ng/ml, cis-platin 100 ng/ml, troglitazone 5 or 10 μM, alone or combined
Protocol: as §1, §2

[6] = humans; cited from earlier work
HCT 15 cells = conditions: cited from earlier work
HCT 116 cells = conditions: cited from earlier work

In the case of `Cc1c(C)c2c(c(C)c1O)CCC(C)(COc1ccc(CC3SC(=O)NC3=O)cc1)O2` (racemic) [troglitazone, ±5-[[4-[(3,4-dihydro-6-hydroxy-2,5,7,8-tetramethyl-2H-1-benzopyran-2-yl)methoxy]phenyl]methyl]-2,4-thiazolidinedione], the IC50 (Saos-2 cells [1]; Homo sapiens, 72 h, Saos-2 cells, 3 days after a single treatment, read-out: IC50 (DNA content per well)) is reported as 1 to 10 µg/mL (≈ 2.26 to 22.6 µM), the “ability to inhibit cell proliferation in combinatorial therapy (5-FU, doxorubicin)” value (Saos-2 cells [1]; compared with the other thiazolidinediones) is reported as “superior to pioglitazone and BRL49653” and the inhibition at 10 µM (PA-1 cells) is reported as 60 to 70%. For the same compound, the “stimulation of PPRE/luciferase transcription” value (PPARγ in UMCR 3 cells) was 3 fold, the “decrease in 3H-thymidine incorporation” value (Saos-2 cells [2]; 10 μg/ml, 24 h exposure) was about 45% and the inhibition at 5 µg/mL (Saos-2 cells [2]; Homo sapiens, SAOS-2, read-out: inhibition of 3H-uridine uptake, 5 μg/ml, 18 hours) was 16%. The inhibition at 10 µg/mL (Saos-2 cells [2]; Homo sapiens, SAOS-2, read-out: inhibition of 3H-uridine uptake, 10 μg/ml, 18 hours) was 43%, the “increase in p21 mRNA levels” value (p21 mRNA) was 2.6 fold and the “inhibition of cell proliferation” value (CaOV3 cells; 10 μM) was “no inhibitory activity”. For the same compound, the “LDH levels in the media as compared to controls” value (Saos-2 cells [3]; any concentration used, 3 days of treatment) was “not altered”, the “lethality to Saos-2 cells (LDH activity)” value (Saos-2 cells [3]; up to 30 μg/ml, 3 days) was “not lethal” and the inhibition at 10 µM (222 cells) was 50%.

In the case of `CC1=C(/C=C/C(C)=C\C=C\C(C)=C\C(=O)O)C(C)(C)CCC1` [9-cis-retinoic acid], the “growth inhibitory activity (FIGS. 13-15)” value [4] is reported as “little on no growth inhibitory activity”.

For `Cc1c2oc3c(C)ccc(C(=O)N[C@@H]4C(=O)N[C@H](C(C)C)C(=O)N5CCC[C@H]5C(=O)N(C)CC(=O)N(C)[C@@H](C(C)C)C(=O)O[C@@H]4C)c3nc-2c(C(=O)N[C@@H]2C(=O)N[C@H](C(C)C)C(=O)N3CCC[C@H]3C(=O)N(C)CC(=O)N(C)[C@@H](C(C)C)C(=O)O[C@@H]2C)c(N)c1=O` [Actinomycin D] (I: T[dV]P[Sar][NMeV] / II: T[dV]P[Sar][NMeV]; ester I:1-I:C, II:1-II:C; linker I:N-II:N via Actinocin(9to1)), the “passage of the blood-brain barrier” value ([5]; in vivo) is listed as “does not pass”.

For `O=C(O)CCCc1ccc(N(CCCl)CCCl)cc1` [Chlorambucil, 4-[bis(2-chlorethyl)amino] benzenebutanoic acid], the oral absorption ([5]; in vivo) is listed as “rapidly and completely absorbed”.

For `O.O=P1(N(CCCl)CCCl)NCCCO1` (stereo not shown) [Cyclophosphamide, 2H-1,3,2-Oxazaphosphorin-2-amine, N,N-bis(2-chloroethyl)tetrahydro-, 2-oxide, monohydrate], the “stability in the gastrointestinal tract” value ([5]; in vivo) is listed as “stable”.

For `COc1cccc2c1C(=O)c1c(O)c3c(c(O)c1C2=O)C[C@@](O)(C(C)=O)C[C@@H]3O[C@H]1C[C@H](N)[C@H](O)[C@H](C)O1` [Daunorubicin, 5,12-Naphthacenedione, (8S-cis)-8-acetyl-10-[(3-amino-2,3,6-trideoxy-a-L-lyxo-hexanopyranosyl)oxy]-7,8,9,10-tetrahydro-6,8,11-trihydroxy-10-methoxy-, hydrochloride], the oral absorption ([5]; in vivo) is listed as “poor”.

For `COc1cccc2c1C(=O)c1c(O)c3c(c(O)c1C2=O)C[C@@](O)(C(=O)CO)C[C@@H]3O[C@H]1C[C@H](N)[C@H](O)[C@H](C)O1` [Doxorubicin, 5,12-Naphthacenedione, (8s-cis)-10-[(3-amino-2,3,6-trideoxy-a-L-lyxo-hexopyranosyl)oxy]-7,8,9,10-tetrahydro-6,8,11-trihydroxy-8-(hydroxyacetyl)-1-methoxy-hydrochloride], the oral absorption ([5]; in vivo) is listed as “absorbed poorly” and the “secreted into the bile” value ([5]; in vivo) is listed as “Forty to 50”.

In the case of `O=NN(CCCl)C(=O)NC1CCCCC1` [Lomustine, 1-(2-chloro-ethyl)-3-cyclohexyl-1 nitrosourea], the “serum half-life of the metabolites” value ([5]; in vivo) is given as 16 to 48 h and the “radioactivity excreted as degradation products within 24 hours” value ([5]; oral, 30 mg/m^2 to 100 mg/m^2, radioactive drug) is given as “about half”.

In the case of `N[C@@H](Cc1ccc(N(CCCl)CCCl)cc1)C(=O)O` [Melphalan, 4-[bis(2-chloroethyl)amino]-L-phenylalanine], the “patients showing a favorable response” value (multiple myeloma) is listed as “one third to one half”.

For `Cc1c(C)c2c(c(C)c1OC(=O)CCC(=O)O)CC[C@@](C)(CCC[C@H](C)CCC[C@H](C)CCCC(C)C)O2` [Vitamin E succinate], the “inhibition of cell proliferation, compounds compared (FIG. 7)” value (Saos-2 cells [1]; single treatment) was “somewhat less effective than troglitazone”.

With `CC1=C(/C=C/C(C)=C/C=C/C(C)=C/C(=O)O)C(C)(C)CCC1` [all trans retinoic acids] the “growth inhibitory activity (FIGS. 13-15)” value [4] was “little on no growth inhibitory activity”.

In the case of `N.N.[Cl][Pt][Cl]` [cis-platin], the oral absorption ([5]; in vivo) is listed as “not absorbed orally” and the “inhibition of cell proliferation” value (human ovarian 2774 cells) is listed as 55%.

In the case of `CO[C@@]12[C@H](COC(N)=O)C3=C(C(=O)C(C)=C(N)C3=O)N1C[C@@H]1N[C@@H]12` [mitomycin], the “dose recovered/excreted in the urine” value [6] is listed as “Approximately 10%”.

For `CCc1ccc(CCOc2ccc(CC3SC(=O)NC3=O)cc2)nc1` (stereo not shown) [pioglitazone], the inhibition at 10 µM (PA-1 cells) was 60 to 70%, the inhibition at 10 µM (CaOV3 cells) was 60% and the inhibition at 10 µM (222 cells) was 36%.

With `CN(CCOc1ccc(CC2SC(=O)NC2=O)cc1)c1ccccn1` (stereo not shown) [rosiglitazone] the inhibition at 10 µM (PA-1 cells) was 60 to 70%, the inhibition at 10 µM (CaOV3 cells) was 60% and the inhibition at 10 µM (222 cells) was 4%.

For `O=C(O)CCC(=O)O` [succinic acid], the “effect upon cell proliferation” value (Saos-2 cells [1]; 100 μM) was “no effect”.

Compound `CC(=O)O[C@H]1C(=O)[C@@]2(C)[C@H]([C@H](OC(=O)c3ccccc3)[C@]3(O)C[C@H](OC(=O)[C@H](O)[C@@H](NC(=O)c4ccccc4)c4ccccc4)C(C)=C1C3(C)C)[C@]1(OC(C)=O)CO[C@@H]1C[C@@H]2O` [taxol] has an inhibition at 0.001 µg/mL (human ovarian 2774 cells; Homo sapiens, read-out: inhibition of cell proliferation) of 28%.

In the case of `CC[C@]1(O)C[C@@H]2CN(CCc3c([nH]c4ccccc34)[C@@](C(=O)OC)(c3cc4c(cc3OC)N(C)[C@H]3[C@@](O)(C(=O)OC)[C@H](OC(C)=O)[C@]5(CC)C=CCN6CC[C@]43[C@@H]65)C2)C1` [vinblastine], the oral absorption ([5]; in vivo) is given as “Unpredictable absorption”.

In the case of `CC[C@]1(O)C[C@H]2CN(CCc3c([nH]c4ccccc34)[C@@](C(=O)OC)(c3cc4c(cc3OC)N(C=O)[C@H]3[C@@](O)(C(=O)OC)[C@H](OC(C)=O)[C@]5(CC)C=CCN6CC[C@]43[C@@H]65)C2)C1` [vincristine], the oral absorption ([5]; in vivo) is listed as “Unpredictable absorption”.

In the case of vitamin E, the IC50 (HCT 15 cells) is listed as 750 µM, the IC50 (HCT 116 cells) is listed as 3 mM and the “cell killing (microscopic examination and LDH levels in the media)” value (Saos-2 cells [3]; 100 μM) is listed as “cells are being killed”.
